Structures can show the parent of a compound that is named as a salt.
Tests used:
[1] = tested on: children with non-syndromic autism spectrum disorder (ASD) and language impairment; assay: Randomized placebo-controlled trial: Autism Impact Measure (AIM); assay type: in vivo, human; settings: lower = less impact
Description: The Autism Impact Measure (“AIM”) is a 45-item parent-reported measure of the frequency and impact of core ASD symptoms during the past 2 weeks using two 5-point scales of increasing severity ranging from 1 to 5.51 The Frequency and Impact scores range 45-225. This two-arm double-blind randomized placebo-controlled parallel study with a 1:1 allocation was performed at Arkansas Children's Research Institute (Little Rock, Ark., USA) from 4 Jun. 2012 to 22 Nov. 2013. Parent and teacher questionnaires were requested at baseline and 6 and 12 weeks after starting treatment. Parents were asked to deliver baseline questionnaires to teachers or therapists. After the first visit, questionnaires were mailed to the parents and teachers at least 1 week prior to the target date of completion. Parents were asked to bring the completed teacher and parent 12-week questionnaires to the final assessment. Other questionnaires were returned in a preaddressed postage-paid envelope. The target dose of the intervention (INN: DL folinic acid calcium salt; USAN: leucovorin calcium) was 2 mg kg^−1 per day (maximum 50 mg per day) in two equally divided doses with half of the target dose given during the first 2 weeks. Dye-free, milk-product-free, vegetarian capsules were provided in three strengths (5, 10 and 25 mg) by Lee Silsby Compounding Pharmacy (Cleveland Heights, Ohio, USA). Certificate of analysis was provided for each capsule strength by an independent analytical service (Eagle Analytical Services, Houston, Tex., USA) for each batch of capsules produced. In all cases, potency was at least 99%. Secondary outcomes. Secondary outcome measures included the Ohio Autism Clinical Impression Scale (OACIS), Vineland Adaptive Behavior Scale 2nd Edition (VABS) Survey Interview Form and several questionnaires. Parents and teachers were asked to complete the Aberrant Behavior Checklist (ABC), Social Responsiveness Scale (SRS) and Behavioral Assessment System for Children 2nd Edition (BASC). Only parents were asked to complete the Autism Impact Measure (AIM) and Autism Symptoms Questionnaire (ASQ). Secondary outcome measures were analyzed using the mixed-model regression. Because of the large number of secondary outcomes, correction for multiple comparisons was conducted using the false discovery rate.

[2] = tested on: children with non-syndromic autism spectrum disorder (ASD) and language impairment; assay: Randomized placebo-controlled trial: Behavioral Assessment System for Children (BASC); assay type: in vivo, human; settings: for BASC Internalizing problems, estimated effect: calcium salt
Description: The Behavioral Assessment System for Children 2nd Edition (“BASC”) ranges from 185 to 306 items and is validated in ASD. Each item is rated 0 to 3 with higher scores indicating greater severity. Standardized T-Scores (mean 50, standard deviation 10) range 20-120 for externalizing, internalizing and behavioral symptoms and 10-90 for adaptive skills. This two-arm double-blind randomized placebo-controlled parallel study with a 1:1 allocation was performed at Arkansas Children's Research Institute (Little Rock, Ark., USA) from 4 Jun. 2012 to 22 Nov. 2013. Parent and teacher questionnaires were requested at baseline and 6 and 12 weeks after starting treatment. Parents were asked to deliver baseline questionnaires to teachers or therapists. After the first visit, questionnaires were mailed to the parents and teachers at least 1 week prior to the target date of completion. Parents were asked to bring the completed teacher and parent 12-week questionnaires to the final assessment. Other questionnaires were returned in a preaddressed postage-paid envelope. The target dose of the intervention (INN: DL folinic acid calcium salt; USAN: leucovorin calcium) was 2 mg kg^−1 per day (maximum 50 mg per day) in two equally divided doses with half of the target dose given during the first 2 weeks. Dye-free, milk-product-free, vegetarian capsules were provided in three strengths (5, 10 and 25 mg) by Lee Silsby Compounding Pharmacy (Cleveland Heights, Ohio, USA). Certificate of analysis was provided for each capsule strength by an independent analytical service (Eagle Analytical Services, Houston, Tex., USA) for each batch of capsules produced. In all cases, potency was at least 99%. Secondary outcomes. Secondary outcome measures included the Ohio Autism Clinical Impression Scale (OACIS), Vineland Adaptive Behavior Scale 2nd Edition (VABS) Survey Interview Form and several questionnaires. Parents and teachers were asked to complete the Aberrant Behavior Checklist (ABC), Social Responsiveness Scale (SRS) and Behavioral Assessment System for Children 2nd Edition (BASC). Only parents were asked to complete the Autism Impact Measure (AIM) and Autism Symptoms Questionnaire (ASQ). Secondary outcome measures were analyzed using the mixed-model regression. Because of the large number of secondary outcomes, correction for multiple comparisons was conducted using the false discovery rate.

[3] = vs placebo, mixed-model regression
[4] = vs placebo, mixed-model regression, lower = better

For `Nc1nc2c(c(=O)[nH]1)N(C=O)C(CNc1ccc(C(=O)N[C@@H](CCC(=O)O)C(=O)O)cc1)CN2` (mixture of isomers) [Folinic acid, DL folinic acid calcium salt], the “AIM Impact, 12-week assessment mean” value ([1]; 2 mg kg^−1 per day, 12 weeks, baseline 105) was 87 Raw Scores, the “AIM Frequency, 12-week assessment mean” value ([1]; 2 mg kg^−1 per day, 12 weeks, baseline 135) was 114 Raw Scores and the “AIM Frequency, estimated effect” value [1, 3] was −2.2 Raw Scores. For the same compound, the “AIM Impact, estimated effect” value [1, 3] was 3.4 Raw Scores, the “BASC Adaptive skills, 12-week assessment mean” value ([2]; 2 mg kg^−1 per day, 12 weeks, baseline 24.5, higher = better) was 27.8 T-Scores and the “BASC Internalizing problems, 12-week assessment mean” value ([2]; 2 mg kg^−1 per day, 12 weeks, baseline 49.3, lower = better) was 43.1 T-Scores. For the same compound, the “BASC Externalizing problems, 12-week assessment mean” value ([2]; 2 mg kg^−1 per day, 12 weeks, baseline 60.9, lower = better) was 57.7 T-Scores, the “BASC Behavior problems, 12-week assessment mean” value ([2]; 2 mg kg^−1 per day, 12 weeks, baseline 71.1, lower = better) was 65.3 T-Scores and the “BASC Adaptive skills, estimated effect” value ([2]; vs placebo, mixed-model regression, higher = better) was 0.4 T-Scores. The “BASC Behavior problems, estimated effect” value [2, 4] was 0.1 T-Scores, the “BASC Externalizing problems, estimated effect” value [2, 4] was −0.1 T-Scores and the “BASC Internalizing problems, estimated effect” value [2, 4] was −1.1 T-Scores. For the same compound, the “BASC Internalizing problems, estimated effect” value ([2]; vs placebo, mixed-model regression, lower = better, listed as folinic acid) was “significantly improved”.
